In ChEMBL document CHEMBL1154419, “Pharmacodynamic effects of telavancin against methicillin-resistant and methicillin-susceptible Staphylococcus aureus strains in the presence of human albumin or serum and in an in vitro kinetic model” (Antimicrob Agents Chemother, 2007):

System: Staphylococcus aureus
Test: Antibacterial activity against methicillin-resistant Staphylococcus aureus COL infected New Zealand white rabbit endocarditis model assessed as reduction in mean aortic vegetation titer at 30 mg/kg, iv twice daily after 4 days
Type: functional, Aorta

SMILES: CN[C@H](CC(C)C)C(=O)N[C@H]1C(=O)N[C@@H](CC(N)=O)C(=O)N[C@H]2C(=O)N[C@H]3C(=O)N[C@H](C(=O)N[C@H](C(=O)O)c4cc(O)cc(O)c4-c4cc3ccc4O)[C@H](O)c3ccc(c(Cl)c3)Oc3cc2cc(c3O[C@@H]2O[C@H](CO)[C@@H](O)[C@H](O)[C@H]2O[C@H]2C[C@](C)(N)[C@H](O)[C@H](C)O2)Oc2ccc(cc2Cl)[C@H]1O [VANCOMYCIN]
- log10CFU/g: 3.4
